The test concerns the target T1, human B-Raf (Homo sapiens, UniProt P15056).
T1 construct: Flag; GST; made in house; host or cells: Sf9 insect cells (B-Raf); E. coli (MEK1-GST)
Description: B-Raf Kinase to MEK1 ELISA. Conditions: for inhibition at 10 µM: read-out: % Inhib./10 uM. The format is biochemical. A digest of the protocol: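 Flag/GST-tagged human B-Raf (Sf9, ~20 ng/point) phosphorylates non-active GST-MEK1 (50 nM final) with ATP and MgCl2 in MOPS pH 7.2 buffer, 60 min at RT. Product is captured on anti-GST plates; MEK1 pSer217/221 is read by phospho-antibody plus europium conjugate (DELFIA).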
In general terms: ELISA stands for enzyme-linked immunosorbent assay.

The mark [1] stands for this setting: median, cpd concentrations from 10 μM to 30 nM in half log dilutions, read-out: Median IC50.

Like-named read-outs stand apart in the source and are kept apart here.

This passage reports IC50 and inhibition results from patent publication US20070219186A1, “Pyrazolo[1,5-A]pyrimidine derivatives and methods of use thereof” (priority 2006, published 2007).

T1 sequence (P15056 whole entry): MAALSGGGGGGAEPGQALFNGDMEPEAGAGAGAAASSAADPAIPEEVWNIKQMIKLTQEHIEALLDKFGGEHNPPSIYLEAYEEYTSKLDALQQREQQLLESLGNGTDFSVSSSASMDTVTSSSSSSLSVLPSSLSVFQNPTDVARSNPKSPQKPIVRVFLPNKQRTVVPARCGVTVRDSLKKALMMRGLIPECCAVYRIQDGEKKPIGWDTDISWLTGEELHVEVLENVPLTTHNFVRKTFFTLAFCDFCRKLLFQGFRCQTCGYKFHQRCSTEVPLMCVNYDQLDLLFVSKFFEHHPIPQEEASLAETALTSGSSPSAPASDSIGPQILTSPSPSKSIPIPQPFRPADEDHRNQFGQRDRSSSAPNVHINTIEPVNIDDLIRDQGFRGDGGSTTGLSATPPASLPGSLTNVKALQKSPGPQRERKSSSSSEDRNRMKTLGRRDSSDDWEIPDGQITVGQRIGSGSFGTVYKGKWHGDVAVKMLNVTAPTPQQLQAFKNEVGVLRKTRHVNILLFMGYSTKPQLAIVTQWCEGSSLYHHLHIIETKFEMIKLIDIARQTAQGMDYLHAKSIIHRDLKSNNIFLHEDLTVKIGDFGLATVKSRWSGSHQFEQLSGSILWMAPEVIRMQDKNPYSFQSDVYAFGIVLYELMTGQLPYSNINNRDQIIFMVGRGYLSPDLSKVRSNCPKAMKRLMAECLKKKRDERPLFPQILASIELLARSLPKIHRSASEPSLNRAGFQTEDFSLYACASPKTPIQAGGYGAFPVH

One may read the IC50 as the concentration that gives 50% inhibition. For `O=C(Nc1cccc(-c2ccnc3c(Br)cnn23)c1)c1ccc(F)c(C(F)(F)F)c1` [Example 163, N-[3-(3-bromopyrazolo[1,5-a]pyrimidin-7-yl)phenyl]-4-fluoro-3-(trifluoromethyl)benzamide], the inhibition at 10 µM worked out at 74%. The IC50 under setting [1] worked out at 4200 nM.
Take `O=C(Nc1cccc(-c2ccnc3c(Br)cnn23)c1)c1ccc(Cl)c(C(F)(F)F)c1` [Example 164, N-[3-(3-bromopyrazolo[1,5-a]pyrimidin-7-yl)phenyl]-4-chloro-3-(trifluoromethyl)benzamide]: the inhibition at 10 µM came out at 58%. Besides, under setting [1], the IC50 was > 10000 nM.
In the same order, the values of `O=C(Nc1cccc(-c2ccnc3c(Br)cnn23)c1)c1ccc(Cl)c(Cl)c1` [Example 165, N-[3-(3-bromopyrazolo[1,5-a]pyrimidin-7-yl)phenyl]-3,4-dichlorobenzamide] are 64% and > 10000 nM.
`O=C(Nc1cccc(-c2ccnc3c(Br)cnn23)c1)Nc1cccc(C(F)(F)F)c1` [Example 166, N-[3-(3-bromopyrazolo[1,5-a]pyrimidin-7-yl)phenyl]-N′-[3-(trifluoromethyl)phenyl]urea]: the inhibition at 10 µM worked out at 94%. Also, the IC50 under setting [1] worked out at 1330 nM.
As for `O=C(Nc1cccc(-c2ccnc3c(Br)cnn23)c1)Nc1ccc(F)c(C(F)(F)F)c1` [Example 167, N-[3-(3-bromopyrazolo[1,5-a]pyrimidin-7-yl)phenyl]-N′-[4-fluoro-3-(trifluoromethyl)phenyl]urea], the inhibition at 10 µM turned out to be 59%. Besides, the concentration for half-maximal inhibition (IC50) under setting [1] is 4990 nM.
For the compound `O=C(Nc1cccc(-c2ccnc3c(Br)cnn23)c1)Nc1ccc(Cl)c(Cl)c1` [Example 168, N-[3-(3-bromopyrazolo[1,5-a]pyrimidin-7-yl)phenyl]-N′-(3,4-dichlorophenyl)urea], the inhibition at 10 µM stood at 58%. For the same compound, under setting [1], the IC50 was 2410 nM.
`Cc1ccc(C(=O)Nc2cccc(-c3ccnc4c(-c5cccnc5)cnn34)c2)cc1C(F)(F)F` [Example 169, 4-methyl-N-[3-(3-pyridin-3-ylpyrazolo[1,5-a]pyrimidin-7-yl)phenyl]-3-(trifluoromethyl)benzamide]: the IC50 is 70 nM and the inhibition at 10 µM was 96%.
On to `COc1ccc(C(=O)Nc2cccc(-c3ccnc4c(-c5cccnc5)cnn34)c2)cc1C(F)(F)F` [Example 170, 4-methoxy-N-[3-(3-pyridin-3-ylpyrazolo[1,5-a]pyrimidin-7-yl)phenyl]-3-(trifluoromethyl)benzamide], for which the IC50 came to 140 nM and the inhibition at 10 µM is 96%.
As to `O=C(Nc1cccc(-c2ccnc3c(-c4cccnc4)cnn23)c1)c1ccc(F)c(C(F)(F)F)c1` [Example 171, 4-fluoro-N-[3-(3-pyridin-3-ylpyrazolo[1,5-a]pyrimidin-7-yl)phenyl]-3-(trifluoromethyl)benzamide], the inhibition at 10 µM was found to be 87%. In addition, the IC50 under setting [1] worked out at 380 nM.
With `O=C(Nc1cccc(-c2ccnc3c(-c4cccnc4)cnn23)c1)c1ccc(Cl)c(C(F)(F)F)c1` [Example 172, 4-chloro-N-[3-(3-pyridin-3-ylpyrazolo[1,5-a]pyrimidin-7-yl)phenyl]-3-(trifluoromethyl)benzamide], the inhibition at 10 µM came to 81%. Besides, the IC50 under setting [1] was found to be 1010 nM.
In the same order, the values of `O=C(Nc1cccc(-c2ccnc3c(-c4cccnc4)cnn23)c1)Nc1cccc(C(F)(F)F)c1` [Example 173, N-[3-(3-pyridin-3-ylpyrazolo[1,5-a]pyrimidin-7-yl)phenyl]-N′-[3-(trifluoromethyl)phenyl]urea] are 85% and 440 nM.
In the same order, the values of `O=C(Nc1cccc(-c2ccnc3c(-c4cccnc4)cnn23)c1)Nc1ccc(Cl)c(C(F)(F)F)c1` [Example 174, N-[4-chloro-3-(trifluoromethyl)phenyl]-N′-[3-(3-pyridin-3-ylpyrazolo[1,5-a]pyrimidin-7-yl)phenyl]urea] are 96% and 110 nM.
Take `O=C(Nc1cccc(-c2ccnc3c(-c4cccnc4)cnn23)c1)Nc1ccc(Cl)c(Cl)c1` [Example 175, N-(3,4-dichlorophenyl)-N′-[3-(3-pyridin-3-ylpyrazolo[1,5-a]pyrimidin-7-yl)phenyl]urea]: the inhibition at 10 µM was found to be 70%. The IC50 under setting [1] came out at 450 nM.
Consider `CCOC(=O)c1cnn2c(-c3cccc(NC(=O)c4cccc(C(F)(F)F)c4)c3)c(C)cnc12` [Example 176, ethyl 6-methyl-7-(3-{[3-(trifluoromethyl)benzoyl]amino}phenyl)pyrazolo[1,5-a]pyrimidine-3-carboxylate], for which the inhibition at 10 µM was 86%. For the same compound, the IC50 under setting [1] is 360 nM.
Taken in the same sequence, the figures for `Cc1cnc2cc(-c3ccncc3)nn2c1-c1cccc(NC(=O)c2cccc(C(F)(F)F)c2)c1` [Example 177, N-[3-(6-methyl-2-pyridin-4-ylpyrazolo[1,5-a]pyrimidin-7-yl)phenyl]-3-(trifluoromethyl)benzamide] were 95% and 200 nM.
As for `Cc1cnc2c(Br)cnn2c1-c1cccc(NC(=O)c2cccc(C(F)(F)F)c2)c1` [Example 178, N-[3-(3-bromo-6-methylpyrazolo[1,5-a]pyrimidin-7-yl)phenyl]-3-(trifluoromethyl)benzamide], inhibition was half-maximal at 3160 nM (IC50) and the inhibition at 10 µM amounted to 67%.
For the compound `Cc1cnc2c(-c3cccnc3)cnn2c1-c1cccc(NC(=O)c2cccc(C(F)(F)F)c2)c1` [Example 179, N-[3-(6-methyl-3-pyridin-3-ylpyrazolo[1,5-a]pyrimidin-7-yl)phenyl]-3-(trifluoromethyl)benzamide], the half-maximal inhibitory concentration (IC50) stood at 650 nM and the inhibition at 10 µM was 90%.
With `Cc1ccc(C(=O)Nc2cccc(-c3ccnc4c(-c5ccc(N)cc5)cnn34)c2)cc1C(F)(F)F` [Example 180, N-{3-[3-(4-aminophenyl)pyrazolo[1,5-a]pyrimidin-7-yl]phenyl}-4-methyl-3-(trifluoromethyl)benzamide], the 50% inhibitory concentration (IC50) was 180 nM and the inhibition at 10 µM came out at 95%.
In the same order, the values of `Cc1ccc(C(=O)Nc2cccc(-c3ccnc4c(-c5cccc(O)c5)cnn34)c2)cc1C(F)(F)F` [Example 181, N-{3-[3-(3-hydroxyphenyl)pyrazolo[1,5-a]pyrimidin-7-yl]phenyl}-4-methyl-3-(trifluoromethyl)benzamide] are 290 nM and 87%.
In the case of `Cc1ccc(C(=O)Nc2cccc(-c3ccnc4c(-c5cccc(C#N)c5)cnn34)c2)cc1C(F)(F)F` [Example 182, N-{3-[3-(3-cyanophenyl)pyrazolo[1,5-a]pyrimidin-7-yl]phenyl}-4-methyl-3-(trifluoromethyl)benzamide], the inhibition at 10 µM came out at 29%. Under setting [1], the IC50 was > 10000 nM.
In the case of `Cc1ccc(C(=O)Nc2cccc(-c3ccnc4c(-c5cccc(C(=O)N(C)C)c5)cnn34)c2)cc1C(F)(F)F` [Example 183, N-[3-(3-{3-[(dimethylamino)carbonyl]phenyl}pyrazolo[1,5-a]pyrimidin-7-yl)phenyl]-4-methyl-3-(trifluoromethyl)benzamide], half-maximal inhibition (IC50) required 270 nM and the inhibition at 10 µM stood at 84%.
Turning to `CC(=O)Nc1ccc(-c2cnn3c(-c4cccc(NC(=O)c5ccc(C)c(C(F)(F)F)c5)c4)ccnc23)cc1` [Example 184, N-(3-{3-[4-(acetylamino)phenyl]pyrazolo[1,5-a]pyrimidin-7-yl}phenyl)-4-methyl-3-(trifluoromethyl)benzamide], the IC50 was determined as 200 nM and the inhibition at 10 µM turned out to be 89%.
On to `CCOC(=O)c1cc2nccc(-c3cccc(NC(=O)c4cccc(C(F)(F)F)c4)c3)n2n1` [Example 185, ethyl 7-(3-{[3-(trifluoromethyl)benzoyl]amino}phenyl)pyrazolo[1,5-a]pyrimidine-2-carboxylate], for which the inhibition at 10 µM is 6%. The IC50 under setting [1] is > 10000 nM.
As for `CN(C)c1cc2nccc(-c3cccc(NC(=O)c4cccc(C(F)(F)F)c4)c3)n2n1` [Example 187, N-{3-[2-(dimethylamino)pyrazolo[1,5-a]pyrimidin-7-yl]phenyl}-3-(trifluoromethyl)benzamide], the inhibition at 10 µM came to 31%. Further, the IC50 under setting [1] is > 10000 nM.
Take `Cc1ccc(C(=O)Nc2cccc(-c3ccnc4c(-c5ccncc5)cnn34)c2)cc1C(F)(F)F` [Example 188, 4-methyl-N-[3-(3-pyridin-4-ylpyrazolo[1,5-a]pyrimidin-7-yl)phenyl]-3-(trifluoromethyl)benzamide]: the IC50 was 300 nM and the inhibition at 10 µM was determined as 86%.
For `COc1ccc(C(=O)Nc2cccc(-c3ccnc4c(-c5ccncc5)cnn34)c2)cc1C(F)(F)F` [Example 189, 4-methoxy-N-[3-(3-pyridin-4-ylpyrazolo[1,5-a]pyrimidin-7-yl)phenyl]-3-(trifluoromethyl)benzamide], 360 nM corresponded to half-maximal inhibition (IC50) and the inhibition at 10 µM worked out at 83%.
Consider `O=C(Nc1cccc(-c2ccnc3c(-c4ccncc4)cnn23)c1)c1ccc(F)c(C(F)(F)F)c1` [Example 190, 4-fluoro-N-[3-(3-pyridin-4-ylpyrazolo[1,5-a]pyrimidin-7-yl)phenyl]-3-(trifluoromethyl)benzamide], for which the inhibition at 10 µM was 68%. The IC50 under setting [1] came out at 940 nM.
In the same order, the values of `O=C(Nc1cccc(-c2ccnc3c(-c4ccncc4)cnn23)c1)c1ccc(Cl)c(C(F)(F)F)c1` [Example 191, 4-chloro-N-[3-(3-pyridin-4-ylpyrazolo[1,5-a]pyrimidin-7-yl)phenyl]-3-(trifluoromethyl)benzamide] are 60% and 1920 nM.
Turning to `O=C(Nc1cccc(-c2ccnc3c(-c4ccncc4)cnn23)c1)Nc1cccc(C(F)(F)F)c1` [Example 192, N-[3-(3-pyridin-4-ylpyrazolo[1,5-a]pyrimidin-7-yl)phenyl]-N′-[3-(trifluoromethyl)phenyl]urea], the inhibition at 10 µM was 72%. Also, the concentration for half-maximal inhibition (IC50) under setting [1] was found to be 1300 nM.
